Measurements as given in patent US7498323B2, “Spiro-piperidine compounds and medicinal use thereof” (Ono Pharmaceuticals Co., Ltd., priority 2003, dated 2009).

Molecular target: Human CCR2 (Homo sapiens, UniProt P41597)
Conditions: at 10 μM; human CCR2-expressing cells (THP-1); human MCP-1 30 nM; Ca2+ transient increase
Protocol: (5) Inhibition test on the binding of MCP-1 to CCR2 (activity of MCP-1 to induce transient increase of Ca ion).
Then, 4-fold to 8-fold 1×Hanks/HEPES (20 mM; pH 7.4)/Probenecid (2.5 mM) was added thereto, followed by further incubation at 37° C. for 30 minutes under shading. After the cells were washed with 1×Hanks/HEPES (20 mM; pH 7.4)/Probenecid (2.5 mM) solution, the cells were suspended again by the same solution to give a density of 2.0×10^6 cells/ml and added to a 96-well plate at 100 μl/well. Each of the test compounds was added, and 3 minutes thereafter, a recombinant human MCP-1 (PeproTach) diluted with 1×Hanks/HEPES (20 mM; pH 7.4)/Probenecid (2.5 mM) was added thereto to a final concentration of 30 nM. Transient increase in the intracellular Ca^2+ concentration induced by the human MCP-1 was measured using a Ca^2+ detector for 96 well use (Hamamatsu Photonics), and inhibition ratio (%) of the test compound was calculated by the following calculation formula. Inhibition ratio=(Ec−Ea)/Ec×100 • Ec: measured value of Ca^2+ transient increase by MCP-1 • Ea: measured value of Ca^2+ transient increase by MCP-1 when a test compound was added.

Sequence of Human CCR2 (P41597 1-360 isoform P41597-2): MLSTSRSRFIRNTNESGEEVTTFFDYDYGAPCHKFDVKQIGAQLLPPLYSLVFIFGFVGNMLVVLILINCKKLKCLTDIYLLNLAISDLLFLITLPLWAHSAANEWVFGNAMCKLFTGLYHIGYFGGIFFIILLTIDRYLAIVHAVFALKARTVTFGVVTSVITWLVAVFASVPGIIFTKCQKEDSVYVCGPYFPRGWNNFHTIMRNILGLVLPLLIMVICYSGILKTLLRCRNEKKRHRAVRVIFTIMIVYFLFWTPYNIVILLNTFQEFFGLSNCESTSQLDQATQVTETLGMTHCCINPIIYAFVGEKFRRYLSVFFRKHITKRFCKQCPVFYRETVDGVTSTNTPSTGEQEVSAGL

SMILES: CCCN1C(=O)N(CCCNC(=O)OCc2ccccc2)CCC12CCN(CCc1ccccc1)CC2 [Example 37, phenylmethyl{3-[2-oxo-9-(2-phenylethyl)-1-propyl-1,3,9-triazaspiro[5.5]undeca-3-yl]propyl}carbamate]
- inhibition ratio: ≥ 50%
